Tests used:
Experiment in all cases: relative viability (nuclei count vs DMSO), 5 days (fraction); higher = more cells survive
[1] = tested on: NCI-H522
Method in brief: (§1)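 Lung cancer cell lines in 1536-well plates got either a single drug or a fixed anchor-drug dose together with five library-drug doses (not always all listed) in √10 steps, by pin tool, on the day after seeding. Nuclei were counted after 5 days, and relative viability is the treated-to-vehicle ratio of nuclei counts. Values are medians of duplicate plates.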

[2] = tested on: CAL-12T
Method in brief: as §1

[3] = tested on: NCI-H1944
Method in brief: as §1

[4] = tested on: NCI-H1395
Method in brief: as §1

[5] = tested on: LC-2-ad
Method in brief: as §1

[6] = tested on: NCI-H1734
Method in brief: as §1

[7] = tested on: HCC-15
Method in brief: as §1

[8] = tested on: LU99A
Method in brief: as §1

[9] = tested on: COR-L 105
Method in brief: as §1

[10] = tested on: PC-14
Method in brief: as §1

[11] = tested on: NCI-H1975
Method in brief: as §1

[12] = tested on: H3255
Method in brief: as §1

[13] = tested on: NCI-H1666
Method in brief: as §1

[14] = tested on: PC-3 [JPC-3]
Method in brief: as §1

[15] = tested on: HCC-366
Method in brief: as §1

[16] = tested on: NCI-H520
Method in brief: as §1

[17] = tested on: NCI-H3122
Method in brief: as §1

[18] = tested on: NCI-H647
Method in brief: as §1

[19] = tested on: NCI-H1563
Method in brief: as §1

[20] = tested on: NCI-H661
Method in brief: as §1

[21] = tested on: NCI-H838
Method in brief: as §1

[22] = tested on: NCI-H1993
Method in brief: as §1

[23] = tested on: SK-LU-1
Method in brief: as §1

[24] = tested on: HARA
Method in brief: as §1

[25] = tested on: NCI-H2228
Method in brief: as §1

CCCCCCCCCCCC1=C(O)C(=O)C=C(O)C1=O [Embelin] + COc1cccc2cc(-c3nc([C@H]4CC[C@H](C(=O)O)CC4)n4ncnc(N)c34)[nH]c12 [OSI-027] (partner 0.5 µM)
relative viability ([1]; first compound 0.08 µM): 0.677 | relative viability ([1]; first compound 0.8 µM): 0.714 | relative viability ([1]; first compound 2.53 µM): 0.752 | relative viability ([1]; first compound 8 µM): 0.641 | relative viability ([2]; first compound 0.08 µM): 0.538 | relative viability ([2]; first compound 0.8 µM): 0.817 | relative viability ([2]; first compound 2.53 µM): 0.513 | relative viability ([2]; first compound 8 µM): 0.665 | relative viability ([3]; first compound 0.08 µM): 0.41 | relative viability ([3]; first compound 0.8 µM): 0.462 | relative viability ([3]; first compound 2.53 µM): 0.358 | relative viability ([3]; first compound 8 µM): 0.425 | relative viability ([4]; first compound 0.08 µM): 0.657 | relative viability ([4]; first compound 0.8 µM): 0.702 | relative viability ([4]; first compound 2.53 µM): 0.615 | relative viability ([4]; first compound 8 µM): 0.549 | relative viability ([5]; first compound 0.08 µM): 0.85 | relative viability ([5]; first compound 0.8 µM): 1.02 | relative viability ([5]; first compound 2.53 µM): 0.97 | relative viability ([5]; first compound 8 µM): 0.516 | relative viability ([6]; first compound 0.08 µM): 0.648 | relative viability ([6]; first compound 0.8 µM): 0.771 | relative viability ([6]; first compound 2.53 µM): 0.618 | relative viability ([6]; first compound 8 µM): 0.608 | relative viability ([7]; first compound 0.08 µM): 0.666 | relative viability ([7]; first compound 0.8 µM): 0.758 | relative viability ([7]; first compound 2.53 µM): 0.721 | relative viability ([7]; first compound 8 µM): 0.625 | relative viability ([8]; first compound 0.08 µM): 0.323 | relative viability ([8]; first compound 0.8 µM): 0.358 | relative viability ([8]; first compound 2.53 µM): 0.27 | relative viability ([8]; first compound 8 µM): 0.282 | relative viability ([9]; first compound 0.08 µM): 0.693 | relative viability ([9]; first compound 0.8 µM): 0.836 | relative viability ([9]; first compound 2.53 µM): 0.602 | relative viability ([9]; first compound 8 µM): 0.621 | relative viability ([10]; first compound 0.08 µM): 0.81 | relative viability ([10]; first compound 0.8 µM): 1.13 | relative viability ([10]; first compound 2.53 µM): 1.24 | relative viability ([10]; first compound 8 µM): 0.848 | relative viability ([11]; first compound 0.08 µM): 0.728 | relative viability ([11]; first compound 0.8 µM): 0.817 | relative viability ([11]; first compound 2.53 µM): 0.88 | relative viability ([11]; first compound 8 µM): 0.768 | relative viability ([12]; first compound 0.08 µM): 0.586 | relative viability ([12]; first compound 0.8 µM): 0.628 | relative viability ([12]; first compound 2.53 µM): 0.63 | relative viability ([12]; first compound 8 µM): 0.587 | relative viability ([13]; first compound 0.08 µM): 0.798 | relative viability ([13]; first compound 0.8 µM): 0.935 | relative viability ([13]; first compound 2.53 µM): 0.871 | relative viability ([13]; first compound 8 µM): 0.865 | relative viability ([14]; first compound 0.08 µM): 0.759 | relative viability ([14]; first compound 0.8 µM): 0.752 | relative viability ([14]; first compound 2.53 µM): 0.829 | relative viability ([14]; first compound 8 µM): 0.867 | relative viability ([15]; first compound 0.08 µM): 0.926 | relative viability ([15]; first compound 0.8 µM): 1.16 | relative viability ([15]; first compound 2.53 µM): 1.03 | relative viability ([15]; first compound 8 µM): 0.905 | relative viability ([16]; first compound 0.08 µM): 0.227 | relative viability ([16]; first compound 0.8 µM): 0.319 | relative viability ([16]; first compound 2.53 µM): 0.401 | relative viability ([16]; first compound 8 µM): 0.238 | relative viability ([17]; first compound 0.08 µM): 0.857 | relative viability ([17]; first compound 0.8 µM): 1.15 | relative viability ([17]; first compound 2.53 µM): 1.31 | relative viability ([17]; first compound 8 µM): 0.875 | relative viability ([18]; first compound 0.08 µM): 0.684 | relative viability ([18]; first compound 0.8 µM): 0.72 | relative viability ([18]; first compound 2.53 µM): 0.963 | relative viability ([18]; first compound 8 µM): 0.649 | relative viability ([19]; first compound 0.08 µM): 0.65 | relative viability ([19]; first compound 0.8 µM): 0.772 | relative viability ([19]; first compound 2.53 µM): 0.71 | relative viability ([19]; first compound 8 µM): 0.758 | relative viability ([20]; first compound 0.08 µM): 0.763 | relative viability ([20]; first compound 0.8 µM): 0.784 | relative viability ([20]; first compound 2.53 µM): 0.8 | relative viability ([20]; first compound 8 µM): 0.769 | relative viability ([21]; first compound 0.08 µM): 0.403 | relative viability ([21]; first compound 0.8 µM): 0.463 | relative viability ([21]; first compound 2.53 µM): 0.38 | relative viability ([21]; first compound 8 µM): 0.436 | relative viability ([22]; first compound 0.08 µM): 0.577 | relative viability ([22]; first compound 0.8 µM): 0.556 | relative viability ([22]; first compound 2.53 µM): 0.606 | relative viability ([22]; first compound 8 µM): 0.547 | relative viability ([23]; first compound 0.08 µM): 0.409 | relative viability ([23]; first compound 0.8 µM): 0.373 | relative viability ([23]; first compound 2.53 µM): 0.383 | relative viability ([23]; first compound 8 µM): 0.34 | relative viability ([24]; first compound 0.08 µM): 0.5 | relative viability ([24]; first compound 0.8 µM): 0.701 | relative viability ([24]; first compound 2.53 µM): 0.601 | relative viability ([24]; first compound 8 µM): 0.526 | relative viability ([25]; first compound 0.08 µM): 0.697 | relative viability ([25]; first compound 0.8 µM): 0.673 | relative viability ([25]; first compound 2.53 µM): 0.726 | relative viability ([25]; first compound 8 µM): 0.485
